Data taken from patent US20210269451A1, “PYRIDINYL HETEROCYCLYL COMPOUNDS FOR THE TREATMENT OF AUTOIMMUNE DISEASE” (Hoffmann-La Roche Inc., priority 2018, published 2021).

How the values were obtained:
hTLR9 = target: T1, hTLR9 (Homo sapiens, UniProt Q9NR96); assay: HEK293-Blue-hTLR-9 cells assay; format: cell-based; design: host or cells: HEK293-Blue-hTLR-9 (HEK293); conditions: HEK293-Blue-hTLR9 cells, ODN2006 stimulation, 20 hrs, SEAP reporter; read-out: HEK/hTLR9 IC50
T1 sequence (Q9NR96 26-1032): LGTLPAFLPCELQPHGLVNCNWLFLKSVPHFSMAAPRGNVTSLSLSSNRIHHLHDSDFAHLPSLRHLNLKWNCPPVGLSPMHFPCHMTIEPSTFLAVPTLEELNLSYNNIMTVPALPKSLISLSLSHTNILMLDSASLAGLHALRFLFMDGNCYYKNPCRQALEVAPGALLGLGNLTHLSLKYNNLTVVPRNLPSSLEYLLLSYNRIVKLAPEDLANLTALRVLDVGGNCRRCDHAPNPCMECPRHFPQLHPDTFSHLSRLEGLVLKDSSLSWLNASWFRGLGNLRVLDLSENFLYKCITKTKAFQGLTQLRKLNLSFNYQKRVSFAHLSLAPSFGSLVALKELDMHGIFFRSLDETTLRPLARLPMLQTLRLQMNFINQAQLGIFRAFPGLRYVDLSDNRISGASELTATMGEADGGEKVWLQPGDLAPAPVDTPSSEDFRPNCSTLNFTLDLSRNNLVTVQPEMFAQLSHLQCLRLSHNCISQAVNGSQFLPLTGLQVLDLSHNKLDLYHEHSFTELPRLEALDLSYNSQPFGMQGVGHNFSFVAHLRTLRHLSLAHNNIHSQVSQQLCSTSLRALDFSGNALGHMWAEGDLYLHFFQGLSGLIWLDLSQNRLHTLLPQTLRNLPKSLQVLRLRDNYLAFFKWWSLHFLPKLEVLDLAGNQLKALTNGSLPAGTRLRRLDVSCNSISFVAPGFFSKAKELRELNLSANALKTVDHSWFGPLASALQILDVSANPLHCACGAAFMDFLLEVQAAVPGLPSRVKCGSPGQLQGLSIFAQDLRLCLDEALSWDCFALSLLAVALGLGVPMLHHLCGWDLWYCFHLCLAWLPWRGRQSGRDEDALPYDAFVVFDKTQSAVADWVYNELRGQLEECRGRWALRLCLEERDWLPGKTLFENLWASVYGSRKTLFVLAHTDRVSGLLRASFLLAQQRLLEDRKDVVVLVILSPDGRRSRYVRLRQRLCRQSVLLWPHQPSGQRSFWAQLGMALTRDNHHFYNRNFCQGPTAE
Protocol: The following tests were carried out in order to determine the activity of the compounds of formula (I) and (Ia) in HEK293-Blue-hTLR-7/8/9 cells assay.
HEK293-Blue-hTLR-9 cells assay:
A stable HEK293-Blue-hTLR-9 cell line was purchased from InvivoGen (Cat. #: hkb-htlr9, San Diego, Calif., USA). These cells were originally designed for studying the stimulation of human TLR9 by monitoring the activation of NE-KB. A SEAP (secreted embryonic alkaline phosphatase) reporter gene was placed under the control of the IFN-β minimal promoter fused to five NE-κB and AP-1-binding sites. The SEAP was induced by activating NE-κB and AP-1 via stimulating HEK-Blue hTLR9 cells with TLR9 ligands. Therefore the reporter expression was declined by TLR9 antagonist under the stimulation of a ligand, such as ODN2006 (Cat. #: tlrl-2006-1, Invivogen, San Diego, Calif., USA), for incubation of 20 hrs. The cell culture supernatant SEAP reporter activity was determined using QUANTI-Blue™ kit (Cat. #: rep-qb1, Invivogen, San Diego, Calif., USA) at a wavelength of 640 nm, a detection medium that turns purple or blue in the presence of alkaline phosphatase.
HEK293-Blue-hTLR9 cells were incubated at a density of 250,000˜450,000 cells/mL in a volume of 170 μL in a 96-well plate in Dulbecco's Modified Eagle's medium (DMEM) containing 4.5 g/L glucose, 50 U/mL penicillin, […], […], 2 mM L-glutamine, 10% (v/v) heat-inactivated fetal bovine serum with addition of 20 μL test compound in a serial dilution in the presence of final DMSO at 1% and 10 μL of 20 uM ODN2006 in above DMEM, perform incubation under 37° C. in a CO2 incubator for 20 hrs. Then 20 μL of the supernatant from each well was incubated with 180 μL Quanti-blue substrate solution at 37° C. for 2 h and the absorbance was read at 620˜655 nm using a spectrophotometer. The signaling pathway that TLR9 activation leads to downstream NE-κB activation has been widely accepted, and therefore similar reporter assay was modified for evaluating TLR9 antagonist.

CYP2D6 = target: T2, CYP2D6 (Homo sapiens, UniProt P10635); assay: CYP inhibition assay in human liver microsome; format: in vitro ADME; conditions: human liver microsomes, probe dextromethorphan, dextromethorphan substrate, percentage inhibition <0: not or weak inhibitor, read-out: CYP 2D6 inhibition %@10 μM
T2 construct: tissue BD-Gentest 452117; host or cells: human liver microsomes
T2 sequence (P10635 whole entry): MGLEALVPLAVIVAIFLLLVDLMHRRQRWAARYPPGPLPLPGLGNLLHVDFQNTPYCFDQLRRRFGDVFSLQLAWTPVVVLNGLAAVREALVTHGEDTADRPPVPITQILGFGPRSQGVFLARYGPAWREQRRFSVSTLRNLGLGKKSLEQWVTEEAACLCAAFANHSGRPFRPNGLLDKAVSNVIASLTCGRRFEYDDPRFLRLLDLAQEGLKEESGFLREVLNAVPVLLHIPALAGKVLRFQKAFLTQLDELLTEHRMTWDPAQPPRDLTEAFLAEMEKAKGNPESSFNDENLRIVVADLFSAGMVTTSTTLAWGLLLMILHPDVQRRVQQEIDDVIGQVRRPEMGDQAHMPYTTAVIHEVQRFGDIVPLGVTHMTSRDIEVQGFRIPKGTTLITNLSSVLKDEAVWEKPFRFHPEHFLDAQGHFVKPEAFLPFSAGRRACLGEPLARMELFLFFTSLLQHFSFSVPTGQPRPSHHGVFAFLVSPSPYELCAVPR
Protocol: The compounds would be desirable to have minimal DDI liabilities. Therefore, the effects of compounds of formula (I) or (Ia) on CYP2D6 are determined.
This is a high throughput screening assay used for assessment of reversible inhibition of CYP2D6 activity of test compounds in human liver microsome (HLM) in early discovery stage.
10 mM DMSO stock solutions of test compounds were diluted in DMSO to generate 2 mM intermediate stock solution. 250 nL of intermediate stock solution were transferred in duplicate into 3 separate 384 well microtitre plates (assay-ready plates). A mixture of HLM and each substrate was made up. 45 μL of HLM substrate mix was then transferred to each well of an assay ready plate and mixed. The negative (solvent) and positive control (standard inhibitor for CYP 2D6) were included in each assay ready plate. The assay ready plate was warmed to 37° C. in an incubator over 10 minutes. 5 μL pre-warmed NADPH regenerating system was added to each incubation well to start the reaction. Final incubation volume was 50 μL. The assay plate then was placed back in the 37° C. incubator. After 10 minutes incubation, incubates were quenched by addition of 50 μL 100% acetonitrile containing internal standards (20 ng/mL D3-Dextrorphan). The supernatants were collected for RapidFire/MS/MS analysis.
RapidFire online solid phase extraction/sample injection system (Agilent) coupled with API4000 triple quadrupole mass spectrometer (AB Sciex) were used for sample analysis. The mobile phase composed of acetonitrile and water supplemented with 0.1% formic acid. A C4 solid phase extraction cartridge is used for sample separation. MS detection is achieved in positive ion MRM mode.
Data analysis Peak areas for substrate, metabolite and internal standard are determined using the RapidFire integrator software (version 3.6.12009.12296). Peak area ratios (PAR) of metabolite and internal standard (stable-labelled metabolite) are then calculated. The measurement window for each experiment is then defined:
PAR (0% activity), average PAR for all incubations containing concentrated inhibitor; Par (100% activity), average PAR for all incubations containing no inhibitor (DMSO controls);
% Activity (test inhibitor)=
=[PAR(test inhibitor)-PAR(0% activity)]/[PAR(100% activity)-PAR(0% activity)];
% Inhibition (test inhibitor)=100-% Activity (test inhibitor).

Compound	IC50 (hTLR9)	inhibition at 10 min, 10 μM (CYP2D6)
Cc1cc(N2CCOC3CN(CC4CN(c5ccc(C#N)c6ncccc56)CC(C)O4)CC32)cc(C)n1 (single isomer, unassigned) [Example 17A]	154 nM	–
Cc1cc(N2CCOC3CN(CC4CN(c5ccc(C#N)c6ncccc56)CC(C)O4)CC32)cc(C)n1 (single isomer, unassigned) [Example 17B]	< 32 nM	5%
Cc1cc(N2CC3(CN(C[C@H]4CN(c5ccc(C#N)c6ncccc56)C[C@@H](C)O4)C3)C2)cc(CO)n1 [Example 1, 5-[(2S,6R)-2-[[2-[2-(hydroxymethyl)-6-methyl-4-pyridyl]-2,6-diazaspiro[3.3]heptan-6-yl]methyl]-6-methyl-morpholin-4-yl]quinoline-8-carbonitrile]	34 nM	6%
C[C@@H]1CN(c2ccc(C#N)c3ncccc23)C[C@H](CN2CC3(C2)CN(c2ccnc(C4CC4)c2)CCO3)O1 [Example 3, 5-[(2S,6R)-2-[[8-(2-cyclopropyl-4-pyridyl)-5-oxa-2,8-diazaspiro[3.5]nonan-2-yl]methyl]-6-methyl-morpholin-4-yl]quinoline-8-carbonitrile]	48 nM	6%
Cc1cc(NC2CCN(C[C@H]3CN(c4ccc(C#N)c5ncccc45)C[C@@H](C)O3)C2)cc(CO)n1 (some centres unmarked) [Example 6]	41 nM	8%
Cc1cc(NC2CN(C[C@H]3CN(c4ccc(C#N)c5ncccc45)C[C@@H](C)O3)C2)cc(C)n1 [Example 7]	39 nM	-21.5%
Cc1cc(N2CCC23CN(C[C@H]2CN(c4ccc(C#N)c5ncccc45)C[C@@H](C)O2)C3)cc(C)n1 [Example 8]	< 32 nM	–
Cc1cc(N2CCC3(CN(C[C@H]4CN(c5ccc(C#N)c6ncccc56)C[C@@H](C)O4)C3)C2)cc(C)n1 [Example 9]	32 nM	-5%
Cc1cc(N2C[C@H]3CN(C[C@H]4CN(c5ccc(C#N)c6ncccc56)C[C@@H](C)O4)C[C@H]3C2)cc(CO)n1 [Example 10]	< 32 nM	3.5%
Cc1cc(N(C)C2CN(C[C@H]3CN(c4ccc(C#N)c5ncccc45)C[C@@H](C)O3)C2)cc(C)n1 [Example 11]	40 nM	-7.5%
Cc1cc(N2CCC23CN(C[C@H]2CN(c4ccc(C#N)c5ncccc45)C[C@@H](C)O2)C3)cc(CO)n1 [Example 12]	49 nM	-3%
C[C@@H]1CN(c2ccc(C#N)c3ncccc23)C[C@H](CN2CCN(c3ccnc(N)c3)CC2)O1 [Example 19, 5-[(2S,6R)-2-[[4-(2-amino-4-pyridyl)piperazin-1-yl]methyl]-6-methyl-morpholin-4-yl]quinoline-8-carbonitrile]	62 nM	–
Cc1cc(N2CC(N(C)C[C@H]3CN(c4ccc(C#N)c5ncccc45)C[C@@H](C)O3)C2)cc(CO)n1 [Example 37]	160 nM	–
C[C@@H]1CN(c2ccc(C#N)c3ncccc23)C[C@H](CN2CC3(C2)CN(c2ccnc(C(C)(C)O)c2)C3)O1 [Example 48, 5-[(2S,6R)-2[[2-[2-(1-hydroxy-1-methyl-ethyl)-4-pyridyl]-2,6-diazaspiro[3.3]heptan-6-yl]methyl]-6-methyl-morpholin-4-yl]quinoline-8-carbonitrile]	148 nM	–
C[C@@H]1CN(c2ccc(C#N)c3ncccc23)C[C@H](CN2CC3(C2)CN(c2ccnc(C4CC4)c2)C3)O1 [Example 49, 5-[(2S,6R)-2[[2-(2-cyclopropyl-4-pyridyl)-2,6-diazaspiro[3.3]heptan-6-yl]methyl]-6-methyl-morpholin-4-yl]quinoline-8-carbonitrile]	34 nM	–

The remaining lines, values ahead:

IC50 (hTLR9)	inhibition at 10 min, 10 μM (CYP2D6)	Compound
148 nM	–	Cc1cc(N2CCN(C[C@H]3CN(c4ccc(C#N)c5ncccc45)C[C@@H](C)O3)[C@@H](C)C2)cc(CO)n1 [Example 4A]
145 nM	–	Cc1cc(N2CCN(C[C@H]3CN(c4ccc(C#N)c5ncccc45)C[C@@H](C)O3)[C@H](C)C2)cc(CO)n1 [Example 4B]
32 nM	7.5%	Cc1cc(NC2CCN(C[C@H]3CN(c4ccc(C#N)c5ncccc45)C[C@@H](C)O3)CC2)cc(CO)n1 [Example 5]
36 nM	–	C[C@@H]1CN(c2ccc(C#N)c3ncccc23)C[C@H](CNC2CCN(c3ccnc(N)c3)CC2)O1 [Example 20, 5-[(2S,6R)-2-[[[1-(2-amino-4-pyridyl)-4-piperidyl]amino]methyl]-6-methyl-morpholin-4-yl]quinoline-8-carbonitrile]
< 32 nM	–	Cc1cc(N2CCC(NC[C@H]3CN(c4ccc(C#N)c5ncccc45)C[C@@H](C)O3)CC2)cc(CO)n1 [Example 23]
57 nM	–	Cc1cc(N2CC[C@@H](NC[C@H]3CN(c4ccc(C#N)c5ncccc45)C[C@@H](C)O3)C2)cc(CO)n1 [Example 28]
59 nM	–	Cc1cc(N2CC[C@H](NC[C@H]3CN(c4ccc(C#N)c5ncccc45)C[C@@H](C)O3)C2)cc(CO)n1 [Example 29]
122 nM	–	Cc1cc(N2CC[C@H](F)[C@H](NC[C@H]3CN(c4ccc(C#N)c5ncccc45)C[C@@H](C)O3)C2)cc(CO)n1 [Example 33]
155 nM	–	Cc1cc(N2CC[C@@H](F)[C@H](NC[C@H]3CN(c4ccc(C#N)c5ncccc45)C[C@@H](C)O3)C2)cc(CO)n1 [Example 34]
215 nM	–	Cc1cc(N2CC(NC[C@H]3CN(c4ccc(C#N)c5ncccc45)C[C@@H](C)O3)CC(F)(F)C2)cc(CO)n1 (some centres unmarked) [Example 36]
